Measurements from patent publication US20120165306A1, “PYRAZINYLPYRIDINES USEFUL FOR THE TREATMENT OF PROLIFERATIVE DISEASES” (priority 2009, published 2012).

Biological target: Cdk9/cyclinT1 (Homo sapiens, UniProt P50750)
Test: Cdk9/cyclinT1 kinase assay (IMAP or Alpha Screen protocol)
Description: Cdk9/cyclinT1 IMAP Protocol
Fluorescence polarization (FP) is used for detection.
Cdk9/cyclinT1 Alpha Screen Protocol

Sequence of Cdk9/cyclinT1 (P50750 whole entry): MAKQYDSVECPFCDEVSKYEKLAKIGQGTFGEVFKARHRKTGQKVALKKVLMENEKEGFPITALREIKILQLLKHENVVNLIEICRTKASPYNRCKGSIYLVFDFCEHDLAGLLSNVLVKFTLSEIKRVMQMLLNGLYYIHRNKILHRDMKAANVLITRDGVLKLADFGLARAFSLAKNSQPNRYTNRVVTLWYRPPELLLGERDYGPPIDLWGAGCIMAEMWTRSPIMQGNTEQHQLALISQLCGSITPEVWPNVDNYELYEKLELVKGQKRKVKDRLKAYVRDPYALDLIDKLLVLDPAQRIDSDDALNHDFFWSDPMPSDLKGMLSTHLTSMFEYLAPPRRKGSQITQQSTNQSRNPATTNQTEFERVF
Sequence of Cdk9/cyclinT1 (O60563 whole entry partner): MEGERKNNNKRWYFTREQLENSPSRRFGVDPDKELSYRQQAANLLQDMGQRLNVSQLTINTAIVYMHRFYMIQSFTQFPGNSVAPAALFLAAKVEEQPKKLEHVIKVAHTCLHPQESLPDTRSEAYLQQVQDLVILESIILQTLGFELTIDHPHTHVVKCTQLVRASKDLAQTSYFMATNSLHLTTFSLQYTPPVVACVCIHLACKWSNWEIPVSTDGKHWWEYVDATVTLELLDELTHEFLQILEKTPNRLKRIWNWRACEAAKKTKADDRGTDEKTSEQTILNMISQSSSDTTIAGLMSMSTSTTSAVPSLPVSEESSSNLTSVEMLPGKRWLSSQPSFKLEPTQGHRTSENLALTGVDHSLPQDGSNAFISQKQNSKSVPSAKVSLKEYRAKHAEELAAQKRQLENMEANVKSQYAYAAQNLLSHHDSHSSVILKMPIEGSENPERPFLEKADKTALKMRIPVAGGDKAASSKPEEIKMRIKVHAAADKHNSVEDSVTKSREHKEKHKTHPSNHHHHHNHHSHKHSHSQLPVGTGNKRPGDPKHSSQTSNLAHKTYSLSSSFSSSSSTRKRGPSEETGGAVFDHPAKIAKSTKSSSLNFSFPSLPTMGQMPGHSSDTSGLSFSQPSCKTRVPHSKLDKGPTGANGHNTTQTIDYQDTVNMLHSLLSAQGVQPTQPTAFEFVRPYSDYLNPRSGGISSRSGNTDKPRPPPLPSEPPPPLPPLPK

Structure (SMILES) | IC50
CS(=O)(=O)N1CCC[C@H](C(=O)Nc2cc(-c3cncc(NCC4CCOCC4)n3)c(Cl)cn2)C1 [Example 6] | < 8 nM
CS(=O)(=O)N[C@@H]1CC[C@H](C(=O)Nc2cc(-c3cncc(NCC4CCOCC4)n3)c(Cl)cn2)C1 [Example 50, (1S,3R)-3-Methanesulfonylamino-cyclopentanecarboxylic acid (5-chloro-4-{6-[(tetrahydro-pyran-4-ylmethyl)-amino]-pyrazin-2-yl}-pyridin-2-yl)-amide] | < 8 nM
CC(C)S(=O)(=O)N1CCC[C@H](C(=O)Nc2cc(-c3cncc(NCC4CCOCC4)n3)c(C(F)(F)F)cn2)C1 [Example 67, (S)-1-(Propane-2-sulfonyl)-piperidine-3-carboxylic acid (4-{6-[(tetrahydro-pyran-4-ylmethyl)-amino]-pyrazin-2-yl}-5-trifluoromethyl-pyridin-2-yl)-amide] | 133 nM
O=C(Nc1cc(-c2cncc(NC3CCOCC3)n2)c(Cl)cn1)[C@@H]1CCCNC1 [Example 27, (R)-Piperidine-3-carboxylic acid {5-chloro-4-[6-(tetrahydro-pyran-4-ylamino)-pyrazin-2-yl]-pyridin-2-yl}-amide] | 48 nM
C[C@H](O)CNc1cncc(-c2cc(NC(=O)[C@@H]3CCCNC3)ncc2Cl)n1 [Example 29, (R)-Piperidine-3-carboxylic acid {5-chloro-4-[6-((S)-2-hydroxy-propylamino)-pyrazin-2-yl]-pyridin-2-yl}-amide] | 37 nM
COCC(=O)Nc1cc(-c2cncc(NCC3CCOCC3)n2)c(Cl)cn1 [Example 10, N-(5-Chloro-4-{6-[(tetrahydro-pyran-4-ylmethyl)-amino]-pyrazin-2-yl}-pyridin-2-yl)-2-methoxy-acetamide] | 124 nM
CC(C)C(=O)Nc1cc(-c2cncc(NCC3CCOCC3)n2)c(C(F)(F)F)cn1 [Example 58, N-(4-{6-[(Tetrahydro-pyran-4-ylmethyl)-amino]-pyrazin-2-yl}-5-trifluoromethyl-pyridin-2-yl)-isobutyramide] | 146 nM
CS(=O)(=O)N[C@H]1CC[C@@H](C(=O)Nc2cc(-c3cncc(NCC4CCOCC4)n3)c(Cl)cn2)C1 [Example 51, (1R,3S)-3-Methanesulfonylamino-cyclopentanecarboxylic acid (5-chloro-4-{6-[(tetrahydro-pyran-4-ylmethyl)-amino]-pyrazin-2-yl}-pyridin-2-yl)-amide] | < 8 nM
O=C(Nc1cc(-c2cncc(NCC3CCOCC3)n2)c(C(F)(F)F)cn1)C1CCOCC1 [Example 59, Tetrahydro-pyran-4-carboxylic acid (4-{6-[(tetrahydro-pyran-4-ylmethyl)-amino]-pyrazin-2-yl}-5-trifluoromethyl-pyridin-2-yl)-amide] | 1010 nM
CC(=O)Nc1cc(-c2cncc(NCC3CCOCC3)n2)c(Cl)cn1 [Example 11, N-(5-Chloro-4-{6-[(tetrahydro-pyran-4-ylmethyl)-amino]-pyrazin-2-yl}-pyridin-2-yl)-acetamide] | 29 nM
O=C(Nc1cc(-c2cncc(NCc3ccc(F)cc3)n2)c(Cl)cn1)[C@@H]1CCCNC1 [Example 20, (R)-Piperidine-3-carboxylic acid {5-chloro-4-[6-(4-fluoro-benzylamino)-pyrazin-2-yl]-pyridin-2-yl}-amide] | < 8 nM
O=C(Nc1cc(-c2cncc(NCC3CCCCO3)n2)c(Cl)cn1)[C@@H]1CCCNC1 (stereo partly drawn) [Example 34, (R)-Piperidine-3-carboxylic acid (5-chloro-4-{6-[(tetrahydro-pyran-2-ylmethyl)-amino]-pyrazin-2-yl}-pyridin-2-yl)-amide] | 11 nM
O=C(Nc1cc(-c2cncc(NCc3ccccn3)n2)c(Cl)cn1)[C@@H]1CCCNC1 [Example 17, (R)-Piperidine-3-carboxylic acid (5-chloro-4-{6-[(pyridin-2-ylmethyl)-amino]-pyrazin-2-yl}-pyridin-2-yl)-amide] | 121 nM
